Tests used:
MMP-1 = MMP-1 expression in fibroblasts by Western blotting and RT-PCR; type: cell-based; settings: for expression of MMP-1 mRNAs: RT-PCR; for expression of MMP-1 proteins: Western blotting; for MMP-1 inhibition and procollagen promotion activity compared with the control substance EGCG: Western blotting and RT-PCR, covers MMP-1 and procollagen
Method: (§1) MMP-1 inhibition activity and procollagen synthesis promotion effect of the Kaempferia pandurata ethanol extract prepared in Example 1 were measured by Western blotting and reverse transcriptase-polymerase chain reaction (RT-PCR).
(§2) Specifically, proteins were extracted from cultured fibroblasts and quantitated using a protein assay reagent (Bio-Rad Laboratories Inc., Hercules, Calif., USA). For Western blotting, the proteins were heated for 3 minutes and, after cooling, transferred to a nitrocellulose membrane (Amersham International, Little Chalfont, England) through electrophoresis in 10% SDS-PAGE. The membrane was saturated with 5% skim milk in TBST (10 mM Tris, pH 7.5, 100 mM NaCl, 0.1% Tween 20). After blotting for 2 hours using primary antibodies (diluted to 1:1000), followed by washing with TBST, blotting was performed for 2 hours using secondary antibodies (diluted to 1:2000). After washing with TBST for 3 times, the blotted antibodies were analyzed using an ECL detection system (Amersham International, Little Chalfont, England).
(§3) For RT-PCR, RNAs were isolated from fibroblasts using TRIZOL (Invitrogen, USA). The isolated RNAs were quantitated using MMP-1 and procollagen primers and Taq polymerase. Specifically, RT-PCR was carried out using MMP-1 primer for 25 cycles, each cycle consisting of 30 seconds at 94° C., 1 minute at 50° C. and 1 minute at 72° C. And RT-PCR was carried out using procollagen primer for 28 cycles, each cycle consisting of 30 seconds at 94° C., 1 minute at 60° C. and 1 minute at 72° C. Then, after electrophoresis using 1% agarose gel, expression of mRNA for MMP-1 and procollagen was analyzed through ethidium bromide (EtBr) illumination.
(§4) MMP-1 inhibition activity and procollagen synthesis promotion effect of the panduratin derivatives prepared in Examples 2 through 4 were measured by Western blotting and RT-PCR in the same manner as Test Example 2-1.

procollagen = experiment: Procollagen synthesis in fibroblasts by Western blotting and RT-PCR; type: cell-based; settings: for expression of procollagen mRNAs: RT-PCR; for expression of procollagen proteins: Western blotting
Method: as §1, §2, §3, §4

fibroblasts = experiment: MTT assay, cell proliferation of fibroblasts; type: cell-based
Method: MTT assay [3-(4,5-dimethylthiazol-2-yl)-2,5-diphenyltetrazolium bromide reduction method] was performed on fibroblasts to evaluate cell proliferation of the panduratin derivatives prepared in Examples 2 through 4. Epigallocatechin-3-O-gallate (EGCG), which is known to have skin wrinkle improvement effect, was selected as control substance.

c-Jun = c-Jun activity in UV-exposed fibroblasts, Western blotting; type: cell-based, Human
Method: (§5) Human skin fibroblasts (CCD-986sk, ATCC, Manassas, Va., USA) were cultured in DMEM (Gibco, Grand Island, N.Y., USA). The fibroblasts were cultured on a 10 cm Petri dish (SPL, Seoul, Korea) to a concentration of 80% and further cultured for 24 hours in serum-free culture medium. Then, the cells were cultured for 24 hours in serum-free DMEM containing the panduratin A of Example 2. After replacing the culture medium with 5 mL of phosphate-buffered saline (PBS), the cells were exposed to UV (20 mJ/cm^2). Cells that were not exposed to UV were used as negative control group, and cells treated with EGCG were used as positive control group.
(§6) The fibroblasts were lysed in RIPA buffer (Sigma-Aldrich Co., St. Louis, Mo., USA) and proteins were quantitated using a protein assay reagent (Bio-Rad Laboratories Inc., Hercules, Calif., USA). For Western blotting, the proteins were heated for 3 minutes and, after cooling, transferred to a nitrocellulose membrane (Amersham International, Little Chalfont, England) through electrophoresis in 10% SDS-PAGE. The membrane was saturated with 5% skim milk in TBST (10 mM Tris, pH 7.5, 100 mM NaCl, 0.1% Tween 20). […] After washing with TBST for 3 times, the blotted antibodies were analyzed using an ECL detection system (Amersham International, Little Chalfont, England). The detection level was measured using the software RFLPscan version 2.1. […]

[1] = test system: Jun-N-terminal kinase (JNK); experiment: UV-induced activation (phosphorylation) of JNK in fibroblasts, Western blotting; type: cell-based, Human; settings: CCD-986sk fibroblasts, UV 20 mJ/cm^2, 24 h pretreatment
Method: as §5
(§7) The fibroblasts were lysed in RIPA buffer (Sigma-Aldrich Co., St. Louis, Mo., USA) and proteins were quantitated using a protein assay reagent (Bio-Rad Laboratories Inc., Hercules, Calif., USA). […] After washing with TBST for 3 times, the blotted antibodies were analyzed using an ECL detection system (Amersham International, Little Chalfont, England). The detection level was measured using the software RFLPscan version 2.1.
(§8) Through this procedure, the change of activity of extracellular-regulated protein kinase (ERK), Jun-N-terminal kinase (JNK) and p38 kinase, which belong to the MAPKs, was measured.

[2] = test system: extracellular-regulated protein kinase (ERK); experiment: UV-induced activation (phosphorylation) of ERK in fibroblasts, Western blotting; type: cell-based, Human; settings: CCD-986sk fibroblasts, UV 20 mJ/cm^2, 24 h pretreatment
Method: as §5, §7, §8

p38 kinase = experiment: UV-induced activation (phosphorylation) of p38 kinase in fibroblasts, Western blotting; type: cell-based, Human; settings: CCD-986sk fibroblasts, UV 20 mJ/cm^2, 24 h pretreatment
Method: as §5, §7, §8

[3] = test system: hairless mice (Hos: HR-1); experiment: Wrinkle improvement in UV-exposed hairless mice, application on skin; type: in vivo
Method: Forty eight 6-week-old female hairless mice (Hos: HR-1) were accustomed for a week and randomly divided into 6 groups, 8 per each. The hairless mice (Hos:HR-1) were exposed to UV for 8 weeks. UV irradiation was carried out 3 times a week, from 1 MED (1 MED=50 mJ/cm^2) to 4 MED, until the end of the test. The 6 test groups were: non UV-treated group, UV-treated group, UV- and Kaempferia pandurata ethanol extract (0.1%, 0.5%)-treated group, and UV- and panduratin A (1 mM, 5 mM)-treated group. Each sample was dissolved in a mixture solvent of ethanol and polyethylene glycol (7:3, v/v) and 50 μL was applied on the back of the mice every day for 8 weeks. For the non UV-treated group and the UV-treated group, 50 μL of a mixture of ethanol and polyethylene glycol (7:3, v/v) was applied.
In order to investigate wrinkle prevention effect, skin replicas were taken using silicone polymer (SILFLO Impression Material, Flexico, England). The image files of the skin replicas were subjected to wrinkle evaluation using the computer image analysis software Skin Visiometer SV 600 (Courage+Khazaha Electronic, Kln, Germany) Rt, Rm, Rz and Ra values (Rt: the distance from the highest and lowest portions on the skin surface, Rm: the maximum Rt value of 5 measurements, Rz: the mean Rt value of 5 measurements, Ra: the arithmetic mean surface roughness) were determined.

AP-1 = experiment: Electrophoretic mobility shift assay (EMSA), DNA binding activity of AP-1; type: cell-based, Human; settings: nuclear proteins of UV-exposed fibroblasts
Method: as §5
Electrophoretic mobility shift assay (EMSA) was performed to measure the DNA binding activity of AP-1. Specifically, the fibroblasts, which were cultured in Test Example 3-1, to which panduratin A was added and which were exposed to UV, were washed with PBS and collected. […] Gel shift assay was carried out using quantitated nuclear proteins according to the manufacturer's instructions (Gel Shift Kit System; Panomics, Fremont, Calif., USA). Then, the detected proteins were analyzed with an ECL detection system (Amersham International, Little Chalfont, England) and the detection level was measured using the software RFLPscan version 2.1.
DNA binding activity of AP-1 was determined through this procedure.

c-Fos = c-Fos activity in UV-exposed fibroblasts, Western blotting; type: cell-based, Human
Method: as §5, §6

[4] = application on skin, 8 weeks, p<0.05

## COc1cc(O)cc(O)c1C(=O)[C@@H]1[C@H](CC=C(C)C)C(C)=CC[C@H]1c1ccccc1 [Isopanduratin A, isopanduratin A]
MMP-1
  expression of MMP-1 mRNAs: decrease of MMP-1 proteins and mRNAs in a concentration-dependent manner
  expression of MMP-1 proteins: decrease of MMP-1 proteins and mRNAs in a concentration-dependent manner
  MMP-1 inhibition and procollagen promotion activity compared with the control substance EGCG: better activity than the control substance EGCG
procollagen
  expression of procollagen mRNAs: increased in a concentration-dependent manner
  expression of procollagen proteins: increased in a concentration-dependent manner
fibroblasts; 0.001 μM
  Proliferation effect (%): 102%
fibroblasts; 0.01 μM
  Proliferation effect (%): 102%
fibroblasts; 0.1 μM
  Proliferation effect (%): 110%
fibroblasts; 1 μM
  Proliferation effect (%): 120%
fibroblasts; 10 μM
  Proliferation effect (%): 124%
fibroblasts; 50 μM
  Proliferation effect (%): 130%

## Epigallocatechin-3-O-gallate [EGCG, reference compound]
fibroblasts; 0.001 μM
  Proliferation effect (%): 102%
fibroblasts; 0.01 μM
  Proliferation effect (%): 104%
fibroblasts; 0.1 μM
  Proliferation effect (%): 107%
fibroblasts; 1 μM
  Proliferation effect (%): 119%
fibroblasts; 10 μM
  Proliferation effect (%): 120%
fibroblasts; 50 μM
  Proliferation effect (%): 126%

## CC(C)=CC[C@@H]1C(C)=CC[C@@H](c2ccccc2)[C@@H]1C(=O)c1c(O)cc(O)cc1O [4-Hydroxypanduratin A, 4-hydroxypanduratin A]
MMP-1
  expression of MMP-1 mRNAs: decrease of MMP-1 proteins and mRNAs in a concentration-dependent manner
  expression of MMP-1 proteins: decrease of MMP-1 proteins and mRNAs in a concentration-dependent manner
  MMP-1 inhibition and procollagen promotion activity compared with the control substance EGCG: better activity than the control substance EGCG
procollagen
  expression of procollagen mRNAs: increased in a concentration-dependent manner
  expression of procollagen proteins: increased in a concentration-dependent manner
fibroblasts; 0.001 μM
  Proliferation effect (%): 101%
fibroblasts; 0.01 μM
  Proliferation effect (%): 102%
fibroblasts; 0.1 μM
  Proliferation effect (%): 109%
fibroblasts; 1 μM
  Proliferation effect (%): 119%
fibroblasts; 10 μM
  Proliferation effect (%): 121%
fibroblasts; 50 μM
  Proliferation effect (%): 128%

## COc1cc(O)c(C(=O)[C@@H]2[C@H](CC=C(C)C)C(C)=CC[C@H]2c2ccccc2)c(O)c1 [Panduratin A, panduratin A]
c-Jun
  c-Jun activity: inhibited c-Jun and c-Fos activity in a concentration-dependent manner
[1]
  activation of JNK: suppressed in a concentration-dependent manner
[2]
  activation of ERK: suppressed in a concentration-dependent manner
p38 kinase
  activation of p38 kinase: suppressed in a concentration-dependent manner
[3]; 50 μL on the back daily for 8 weeks, extract 0.1% and 0.5%, panduratin A 1 mM and 5 mM
  wrinkling (skin replicas) as compared to the UV-treated group: remarkably decreased wrinkling
[3]; [4]
  Ra value (arithmetic mean surface roughness): significantly decreased
  Rm value (maximum Rt value of 5 measurements): significantly decreased
  Rt value (distance from the highest and lowest portions on the skin surface): significantly decreased
  Rz value (mean Rt value of 5 measurements): significantly decreased
MMP-1
  expression of MMP-1 mRNAs: decrease of MMP-1 proteins and mRNAs in a concentration-dependent manner
  expression of MMP-1 proteins: decrease of MMP-1 proteins and mRNAs in a concentration-dependent manner
  MMP-1 inhibition and procollagen promotion activity compared with the control substance EGCG: better activity than the control substance EGCG
procollagen
  expression of procollagen mRNAs: increased in a concentration-dependent manner
  expression of procollagen proteins: increased in a concentration-dependent manner
fibroblasts; 0.001 μM
  Proliferation effect (%): 103%
fibroblasts; 0.01 μM
  Proliferation effect (%): 104%
fibroblasts; 0.1 μM
  Proliferation effect (%): 111%
fibroblasts; 1 μM
  Proliferation effect (%): 120%
fibroblasts; 10 μM
  Proliferation effect (%): 126%
fibroblasts; 50 μM
  Proliferation effect (%): 131%
AP-1
  binding of AP-1 to DNA: inhibited binding of AP-1 to DNA in a concentration-dependent manner
c-Fos
  c-Fos activity: inhibited c-Jun and c-Fos activity in a concentration-dependent manner

From patent publication US20160271028A1, “NOVEL USE OF PANDURATIN DERIVATIVES OR EXTRACT OF KAEMPFERIA PANDURATA COMPRISING THE SAME” (Newtree Co., Ltd., priority 2007, published 2016)
